Test results: patent US9266878B2, “Phosphatidylinositol 3-kinase inhibitors” (Gilead Calistoga LLC, priority 2012, dated 2016)

Experiments:
Experiment in all cases: Enzymatic activity of PI3K isoforms, TR-FRET assay (PIP3 formation)
Type in all cases: biochemical
PI3Kγ = PI3Kγ (Homo sapiens (Human), UniProt P48736); conditions: bound given in uM
Procedure, shortened: (§1)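 Recombinant heterodimeric class I PI3K enzymes were assayed by TR-FRET. PIP3 product displaces fluorescently labelled PIP3 from the GRP-1 PH domain, lowering the signal; IC50 values are given in nM.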

PI3Kβ = PI3Kβ (Homo sapiens (Human), UniProt P42338); conditions: bound given in uM
Procedure, shortened: as §1

PI3Kδ = PI3Kδ (Homo sapiens (Human), UniProt O00329); conditions: bound given in nM
Procedure, shortened: (§2)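 Heterodimeric recombinant class I PI3K; PIP3 product displaces labeled PIP3 from GRP-1 PH domain, lowering TR-FRET. Reaction 30 min at 25° C, stopped with 10 mM EDTA, 10 nM labeled-PIP3, 35 nM Eu-GRP-1. Read Ex 340 nm, Em 615/665 nm; IC50 in nM.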

PI3Kα = PI3Kα (Homo sapiens (Human), UniProt P42336); conditions: bound given in uM
Procedure, shortened: as §2

PI3Kβ, sequence (P42338 whole entry): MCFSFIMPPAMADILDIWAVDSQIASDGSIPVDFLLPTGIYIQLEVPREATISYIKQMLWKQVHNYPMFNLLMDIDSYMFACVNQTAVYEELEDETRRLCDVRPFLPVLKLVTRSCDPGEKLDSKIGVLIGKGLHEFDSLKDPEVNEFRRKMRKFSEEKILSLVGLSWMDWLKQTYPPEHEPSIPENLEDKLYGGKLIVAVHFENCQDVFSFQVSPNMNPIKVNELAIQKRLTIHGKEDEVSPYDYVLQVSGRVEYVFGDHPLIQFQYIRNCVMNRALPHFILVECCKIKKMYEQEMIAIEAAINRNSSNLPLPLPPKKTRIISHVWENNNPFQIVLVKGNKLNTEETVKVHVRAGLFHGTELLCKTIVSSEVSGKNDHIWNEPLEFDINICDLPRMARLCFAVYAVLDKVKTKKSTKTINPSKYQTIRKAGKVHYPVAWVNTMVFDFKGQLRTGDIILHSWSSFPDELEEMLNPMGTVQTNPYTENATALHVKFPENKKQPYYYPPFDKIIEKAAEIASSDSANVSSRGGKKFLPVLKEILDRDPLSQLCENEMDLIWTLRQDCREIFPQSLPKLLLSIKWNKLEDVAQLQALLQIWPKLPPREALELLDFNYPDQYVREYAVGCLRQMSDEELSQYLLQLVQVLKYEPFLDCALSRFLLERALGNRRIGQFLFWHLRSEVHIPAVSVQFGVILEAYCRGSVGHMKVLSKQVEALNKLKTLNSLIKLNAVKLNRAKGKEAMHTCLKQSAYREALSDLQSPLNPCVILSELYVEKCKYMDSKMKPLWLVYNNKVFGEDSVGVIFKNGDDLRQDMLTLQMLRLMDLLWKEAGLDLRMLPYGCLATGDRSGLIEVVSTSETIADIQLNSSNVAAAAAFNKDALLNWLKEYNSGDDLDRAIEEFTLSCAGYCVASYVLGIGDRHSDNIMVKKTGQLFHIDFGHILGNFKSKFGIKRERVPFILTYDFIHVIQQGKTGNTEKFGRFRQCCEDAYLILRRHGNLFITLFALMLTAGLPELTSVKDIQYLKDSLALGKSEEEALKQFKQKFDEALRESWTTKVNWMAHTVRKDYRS
PI3Kβ, sequence (P27986 whole entry partner): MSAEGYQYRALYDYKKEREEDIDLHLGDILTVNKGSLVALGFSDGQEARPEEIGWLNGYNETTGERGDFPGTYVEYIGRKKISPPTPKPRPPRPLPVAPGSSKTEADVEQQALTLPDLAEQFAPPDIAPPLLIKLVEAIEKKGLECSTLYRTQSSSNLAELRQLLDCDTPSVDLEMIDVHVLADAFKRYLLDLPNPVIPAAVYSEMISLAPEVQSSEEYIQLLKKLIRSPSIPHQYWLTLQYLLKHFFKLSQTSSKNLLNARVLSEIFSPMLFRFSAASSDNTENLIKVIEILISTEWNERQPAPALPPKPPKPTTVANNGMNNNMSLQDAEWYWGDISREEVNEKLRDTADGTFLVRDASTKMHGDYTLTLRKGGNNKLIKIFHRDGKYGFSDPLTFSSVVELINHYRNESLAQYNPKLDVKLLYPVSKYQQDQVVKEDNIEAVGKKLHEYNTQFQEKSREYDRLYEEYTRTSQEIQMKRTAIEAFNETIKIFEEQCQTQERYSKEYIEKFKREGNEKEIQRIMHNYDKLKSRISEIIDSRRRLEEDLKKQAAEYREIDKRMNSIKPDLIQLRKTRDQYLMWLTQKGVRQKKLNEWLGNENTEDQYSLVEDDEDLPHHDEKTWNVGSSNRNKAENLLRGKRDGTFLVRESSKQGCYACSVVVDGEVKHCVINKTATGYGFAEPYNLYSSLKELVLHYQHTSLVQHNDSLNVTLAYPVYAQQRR
PI3Kγ, sequence (P48736 whole entry, the tested form may be a part): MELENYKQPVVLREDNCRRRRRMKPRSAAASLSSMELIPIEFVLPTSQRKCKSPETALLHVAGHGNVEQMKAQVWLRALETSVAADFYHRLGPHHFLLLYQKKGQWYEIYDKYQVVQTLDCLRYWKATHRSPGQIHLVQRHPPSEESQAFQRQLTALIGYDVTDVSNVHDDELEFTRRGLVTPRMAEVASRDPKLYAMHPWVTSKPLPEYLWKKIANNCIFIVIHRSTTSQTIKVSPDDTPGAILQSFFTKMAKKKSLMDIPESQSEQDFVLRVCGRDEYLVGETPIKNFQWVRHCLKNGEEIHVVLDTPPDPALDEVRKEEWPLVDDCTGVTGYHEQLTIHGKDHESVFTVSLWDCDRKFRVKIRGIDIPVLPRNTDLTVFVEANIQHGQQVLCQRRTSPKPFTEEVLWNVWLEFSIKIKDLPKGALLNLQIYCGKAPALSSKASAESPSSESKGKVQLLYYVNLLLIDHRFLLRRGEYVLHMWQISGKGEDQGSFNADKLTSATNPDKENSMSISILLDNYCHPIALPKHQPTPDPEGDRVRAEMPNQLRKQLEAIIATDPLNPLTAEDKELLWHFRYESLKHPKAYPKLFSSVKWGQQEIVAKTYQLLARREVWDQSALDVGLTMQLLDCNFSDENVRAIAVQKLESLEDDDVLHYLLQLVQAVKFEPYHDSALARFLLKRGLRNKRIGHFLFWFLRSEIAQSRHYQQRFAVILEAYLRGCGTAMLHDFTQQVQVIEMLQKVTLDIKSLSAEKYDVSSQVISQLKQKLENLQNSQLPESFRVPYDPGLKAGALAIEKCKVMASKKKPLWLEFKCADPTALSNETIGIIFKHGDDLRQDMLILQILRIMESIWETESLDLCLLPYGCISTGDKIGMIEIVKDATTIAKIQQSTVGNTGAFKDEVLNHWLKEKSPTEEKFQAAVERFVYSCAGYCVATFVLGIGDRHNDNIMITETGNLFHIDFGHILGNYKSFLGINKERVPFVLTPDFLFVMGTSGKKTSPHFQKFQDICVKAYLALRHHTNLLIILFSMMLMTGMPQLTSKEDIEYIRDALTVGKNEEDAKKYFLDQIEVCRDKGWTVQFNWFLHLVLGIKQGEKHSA
PI3Kγ, sequence (Q8WYR1 whole entry partner, the tested form may be a part): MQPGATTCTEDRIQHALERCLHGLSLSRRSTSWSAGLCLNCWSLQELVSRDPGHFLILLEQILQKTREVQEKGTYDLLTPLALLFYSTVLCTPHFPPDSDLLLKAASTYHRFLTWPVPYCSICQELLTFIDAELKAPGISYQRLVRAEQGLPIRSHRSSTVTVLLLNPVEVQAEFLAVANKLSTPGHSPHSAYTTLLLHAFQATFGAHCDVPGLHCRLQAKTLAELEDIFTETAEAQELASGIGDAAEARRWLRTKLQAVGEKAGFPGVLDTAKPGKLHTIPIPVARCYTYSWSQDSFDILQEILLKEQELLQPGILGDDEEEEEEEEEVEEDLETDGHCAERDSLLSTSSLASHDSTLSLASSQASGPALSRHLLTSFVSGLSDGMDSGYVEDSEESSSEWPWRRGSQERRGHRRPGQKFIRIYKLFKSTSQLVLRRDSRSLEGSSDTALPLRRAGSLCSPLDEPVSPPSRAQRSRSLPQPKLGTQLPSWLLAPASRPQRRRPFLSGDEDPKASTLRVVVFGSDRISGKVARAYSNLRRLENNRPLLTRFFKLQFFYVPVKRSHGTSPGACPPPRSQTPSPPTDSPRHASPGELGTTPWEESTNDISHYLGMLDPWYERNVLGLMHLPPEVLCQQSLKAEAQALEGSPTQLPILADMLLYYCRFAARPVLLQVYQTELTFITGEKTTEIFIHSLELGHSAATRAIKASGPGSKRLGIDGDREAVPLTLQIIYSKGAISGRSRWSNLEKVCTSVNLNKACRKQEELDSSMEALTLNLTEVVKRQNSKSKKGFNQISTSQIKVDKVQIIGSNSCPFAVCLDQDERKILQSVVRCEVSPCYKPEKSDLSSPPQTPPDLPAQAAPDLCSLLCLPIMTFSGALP
PI3Kδ, sequence (O00329 whole entry, the tested form may be a part): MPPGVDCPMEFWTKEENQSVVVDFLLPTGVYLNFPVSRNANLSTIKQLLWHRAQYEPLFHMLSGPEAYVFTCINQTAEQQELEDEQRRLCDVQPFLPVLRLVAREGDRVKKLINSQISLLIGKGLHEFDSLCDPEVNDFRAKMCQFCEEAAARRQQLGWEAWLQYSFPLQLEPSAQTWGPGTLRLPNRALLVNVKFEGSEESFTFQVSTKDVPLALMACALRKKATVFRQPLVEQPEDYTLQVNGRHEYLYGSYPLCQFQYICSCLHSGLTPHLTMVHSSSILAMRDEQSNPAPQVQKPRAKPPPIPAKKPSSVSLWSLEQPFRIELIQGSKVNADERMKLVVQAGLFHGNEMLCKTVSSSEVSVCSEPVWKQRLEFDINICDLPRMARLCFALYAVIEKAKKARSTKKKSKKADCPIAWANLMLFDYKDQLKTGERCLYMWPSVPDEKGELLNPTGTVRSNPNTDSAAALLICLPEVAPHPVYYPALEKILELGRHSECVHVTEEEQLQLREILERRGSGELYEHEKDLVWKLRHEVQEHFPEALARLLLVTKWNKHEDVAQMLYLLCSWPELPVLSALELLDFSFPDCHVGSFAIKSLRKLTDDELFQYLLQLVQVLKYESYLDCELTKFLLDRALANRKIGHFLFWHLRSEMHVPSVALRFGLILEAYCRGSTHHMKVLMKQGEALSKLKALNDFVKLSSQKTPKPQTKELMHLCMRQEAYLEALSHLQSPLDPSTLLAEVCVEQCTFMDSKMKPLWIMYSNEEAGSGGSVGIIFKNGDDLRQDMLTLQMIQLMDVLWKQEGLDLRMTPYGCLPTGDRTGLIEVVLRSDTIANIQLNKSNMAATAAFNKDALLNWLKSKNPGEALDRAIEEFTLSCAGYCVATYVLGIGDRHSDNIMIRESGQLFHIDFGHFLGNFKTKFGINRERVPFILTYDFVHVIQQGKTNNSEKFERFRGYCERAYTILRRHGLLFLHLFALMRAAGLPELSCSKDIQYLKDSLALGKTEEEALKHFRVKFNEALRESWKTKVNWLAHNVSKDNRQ
PI3Kδ, sequence (P27986 whole entry partner, the tested form may be a part): as the sequence (P27986 whole entry partner) above

| IC50 (PI3Kγ) | IC50 (PI3Kβ) | IC50 (PI3Kδ) | IC50 (PI3Kα) | SMILES |
| --- | --- | --- | --- | --- |
| > 1 µM | > 1 µM | < 100 nM | > 1 µM | C[C@H](Nc1ncnc(N)c1C#Cc1cnccn1)c1nc2cccc(F)c2c(=O)n1-c1cc(F)cc(F)c1 [Compound 87a, (S)-2-(1-((6-amino-5-(pyrazin-2-ylethynyl)pyrimidin-4-yl)amino)ethyl)-3-(3,5-difluorophenyl)-5-fluoroquinazolin-4(3H)-one] |
| > 1 µM | > 1 µM | < 100 nM | > 1 µM | C[C@H](Nc1ncnc(N)c1C#Cc1ccc(F)cn1)c1nc2ccc(F)cc2c(=O)n1-c1ccccc1 [Compound 90a, (S)-2-(1-((6-amino-5-((5-fluoropyridin-2-yl)ethynyl)pyrimidin-4-yl)amino)ethyl)-6-fluoro-3-phenylquinazolin-4(3H)-one] |
| > 1 µM | > 1 µM | < 100 nM | > 1 µM | C[C@H](Nc1ncnc(N)c1C#Cc1ccc(F)cn1)c1nc2cccc(Cl)c2c(=O)n1-c1cccc(C#N)c1 [Compound 92a, (S)-3-(2-(1-((6-amino-5-((5-fluoropyridin-2-yl)ethynyl)pyrimidin-4-yl)amino)ethyl)-5-chloro-4-oxoquinazolin-3(4H)-yl)benzonitrile] |
| > 1 µM | > 1 µM | < 100 nM | > 1 µM | C[C@H](Nc1ncnc(N)c1C#Cc1cnccn1)c1nc2cccc(Cl)c2c(=O)n1-c1cccc(C#N)c1 [Compound 93a, (S)-3-(2-(1-((6-amino-5-(pyrazin-2-ylethynyl)pyrimidin-4-yl)amino)ethyl)-5-chloro-4-oxoquinazolin-3(4H)-yl)benzonitrile] |
| > 1 µM | > 1 µM | < 100 nM | > 1 µM | C[C@H](Nc1ncnc(N)c1C#Cc1ccc(F)cn1)c1nc2ccc(F)cc2c(=O)n1-c1cccc(C#N)c1 [Compound 94a, (S)-3-(2-(1-((6-amino-5-((5-fluoropyridin-2-yl)ethynyl)pyrimidin-4-yl)amino)ethyl)-6-fluoro-4-oxoquinazolin-3(4H)-yl)benzonitrile] |
| > 1 µM | > 1 µM | < 100 nM | > 1 µM | C[C@H](Nc1ncnc(N)c1C#Cc1cnccn1)c1nc2ccc(F)cc2c(=O)n1-c1cccc(C#N)c1 [Compound 95a, (S)-3-(2-(1-((6-amino-5-(pyrazin-2-ylethynyl)pyrimidin-4-yl)amino)ethyl)-6-fluoro-4-oxoquinazolin-3(4H)-yl)benzonitrile] |
| > 1 µM | > 1 µM | < 100 nM | > 1 µM | C[C@H](Nc1ncnc(N)c1C#Cc1ccc(F)cn1)c1nc2ccc(F)cc2c(=O)n1-c1cccc(Cl)c1 [Compound 96a, (S)-2-(1-((6-amino-5-((5-fluoropyridin-2-yl)ethynyl)pyrimidin-4-yl)amino)ethyl)-3-(3-chlorophenyl)-6-fluoroquinazolin-4(3H)-one] |
| > 1 µM | > 1 µM | < 100 nM | > 1 µM | C[C@H](Nc1ncnc(N)c1C#Cc1cnccn1)c1nc2ccc(F)cc2c(=O)n1-c1cccc(Cl)c1 [Compound 97a, (S)-2-(1-((6-amino-5-(pyrazin-2-ylethynyl)pyrimidin-4-yl)amino)ethyl)-3-(3-chlorophenyl)-6-fluoroquinazolin-4(3H)-one] |
| > 1 µM | > 1 µM | < 100 nM | > 1 µM | C[C@H](Nc1ncnc(N)c1C#Cc1ccc(F)cn1)c1nc2cccc(F)c2c(=O)n1-c1cccc(F)c1 [Compound 99a, (S)-2-(1-((6-amino-5-((5-fluoropyridin-2-yl)ethynyl)pyrimidin-4-yl)amino)ethyl)-5-fluoro-3-(3-fluorophenyl)quinazolin-4(3H)-one] |
| > 1 µM | > 1 µM | < 100 nM | > 1 µM | C[C@H](Nc1ncnc(N)c1C#Cc1cnccn1)c1nc2c(F)cccc2c(=O)n1-c1cc(F)cc(F)c1 [Compound 100a, (S)-2-(1-((6-amino-5-(pyrazin-2-ylethynyl)pyrimidin-4-yl)amino)ethyl)-3-(3,5-difluorophenyl)-8-fluoroquinazolin-4(3H)-one] |
| > 1 µM | > 1 µM | < 100 nM | > 1 µM | C[C@H](Nc1ncnc(N)c1C#Cc1cnccn1)c1nc2cccc(F)c2c(=O)n1-c1cccc(F)c1 [Compound 101a, (S)-2-(1-((6-amino-5-(pyrazin-2-ylethynyl)pyrimidin-4-yl)amino)ethyl)-5-fluoro-3-(3-fluorophenyl)quinazolin-4(3H)-one] |
| > 1 µM | > 1 µM | < 100 nM | > 1 µM | C[C@H](Nc1ncnc(N)c1C#Cc1ncccn1)c1nc2cccc(Cl)c2c(=O)n1-c1cc(F)cc(F)c1 [Compound 103a, (S)-2-(1-((6-amino-5-(pyrimidin-2-ylethynyl)pyrimidin-4-yl)amino)ethyl)-5-chloro-3-(3,5-difluorophenyl)quinazolin-4(3H)-one] |
| > 1 µM | > 1 µM | < 100 nM | > 1 µM | Cc1cccc2nc([C@H](C)Nc3ncnc(N)c3C#Cc3ncccn3)n(-c3cc(F)cc(F)c3)c(=O)c12 [Compound 105a, (S)-2-(1-((6-amino-5-(pyrimidin-2-ylethynyl)pyrimidin-4-yl)amino)ethyl)-3-(3,5-difluorophenyl)-5-methylquinazolin-4(3H)-one] |
| > 1 µM | > 1 µM | < 100 nM | > 1 µM | CC[C@H](Nc1ncnc(N)c1C#Cc1cnccn1)c1nc2cccc(F)c2c(=O)n1-c1cc(F)cc(F)c1 [Compound 107a, (S)-2-(1-((6-amino-5-(pyrazin-2-ylethynyl)pyrimidin-4-yl)amino)propyl)-3-(3,5-difluorophenyl)-5-fluoroquinazolin-4(3H)-one] |
| > 1 µM | > 1 µM | < 100 nM | > 1 µM | CC[C@H](Nc1ncnc(N)c1C#Cc1cnccn1)c1nc2cccc(C)c2c(=O)n1-c1cc(F)cc(F)c1 [Compound 108a, (S)-2-(1-((6-amino-5-(pyrazin-2-ylethynyl)pyrimidin-4-yl)amino)propyl)-3-(3,5-difluorophenyl)-5-methylquinazolin-4(3H)-one] |
| > 1 µM | > 1 µM | < 100 nM | > 1 µM | C[C@H](Nc1ncnc(N)c1C#Cc1ccccc1)c1nc2cccc(F)c2c(=O)n1-c1cccc(C#N)c1 [Compound 110a, (S)-3-(2-(1-((6-amino-5-(phenylethynyl)pyrimidin-4-yl)amino)ethyl)-5-fluoro-4-oxoquinazolin-3(4H)-yl)benzonitrile] |
| > 1 µM | > 1 µM | < 100 nM | > 1 µM | C[C@H](Nc1ncnc(N)c1C#Cc1cnccn1)c1nc2cccc(S(C)(=O)=O)c2c(=O)n1-c1ccccc1 [Compound 113a, (S)-2-(1-((6-amino-5-(pyrazin-2-ylethynyl)pyrimidin-4-yl)amino)ethyl)-5-(methylsulfonyl)-3-phenylquinazolin-4(3H)-one] |
| > 1 µM | > 1 µM | < 100 nM | > 1 µM | C[C@H](Nc1ncnc(N)c1C#Cc1ncccn1)c1nc2cccc(Cl)c2c(=O)n1-c1cccnc1 [Compound 117a, (S)-2-(1-((6-amino-5-(pyrimidin-2-ylethynyl)pyrimidin-4-yl)amino)ethyl)-5-chloro-3-(pyridin-3-yl)quinazolin-4(3H)-one] |
